Legend:
[1] = test system: mouse erythrocytes; test: Red blood cell lysis assay; type: cell-based; settings: mouse erythrocytes 1% hematocrit, 24 hours, 0.2-100× fold EC50
Text: Materials and methods. Random-bred Swiss albino CD-1 female mice (Charles River Laboratories, Wilmington, Mass., USA) from 6-8 weeks old were used for the study. All mice procedures were approved by the Institutional Animal Care and Use Committee under the protocol number 2480108 at the AAALAC accredited University of Puerto Rico-Medical Sciences Campus Animal Resources Center. The mice work was done in strict accordance with the “Guide for the Care and Use of Laboratory Animals” (National-Research-Council, Current Edition) and regulations of the PHS Policy on Humane Care and Use of Laboratory Animals. Mice were acclimated for 1 week before initiation of experiments.
Compounds were analyzed at 10 serial dilutions using fresh mouse erythrocytes at 1% hematocrit in Dulbecco's PBS (Gibco®) in V-bottom microplates (Corning® 96 well TC-treated microplate). The plates were incubated for 24 hours at 37° C. followed by centrifugation at 2,000 rpm for 5 min, and 50 μl of supernatant was transferred to a fresh flat-bottom microplate (BD Falcon®). The amount of hemoglobin release in the supernatant was determined using the QuantiChrom™ Hemoglobin Assay Kit (DIHB-250; BioAssay Systems) by measuring the absorbance at 400 nm following the manufacturer's instructions. Saponin at 100 μg/ml was used as a positive control for 100% cell lysis, blood (1% hematocrit) with Dulbecco's Phosphate-Buffered Saline (DPBS) as a negative control for no cell lysis, and DPBS as a blank. Compounds were tested in three independent experiments in triplicate each.

[2] = test system: P. falciparum multidrug-resistant Dd2 clone B2; test: In vitro susceptibility of P. falciparum, flow cytometry after 72 hours; type: cell-based, Plasmodium falciparum; settings: P. falciparum Dd2 clone B2, 72 hours; read-out: EC50 (parasite growth)
Method: After 72 hours, parasite growth was assessed using flow cytometry on an Accuri C6 cytometer with parasites stained with SYBR green I and MitoTracker Deep Red. Compound CB-27 was tested in six independent experiments with technical replicates. The percentage of parasite growth was curve fitted against log-transformed drug concentrations and the EC50 was calculated using GraphPad Prism 6 software.

[3] = test system: PbGST; test: GST inhibition (CDNB/GSH) in crude P. berghei protein extract; type: biochemical, Plasmodium berghei; settings: crude P. berghei protein extract, 0, 1, 10, and 50 μM
Method: Materials and methods. […] Parasite extracts were prepared and the pellets containing proteins were resuspended in buffer (3.5 mM MgCl2, 110 mM KCl, 40 mM NaCl, 20 mM HEPES, 6 mM EDTA, pH 7.4) with protease inhibitors (0.01 mg of leupeptin A, 0.001 mg of pepstatin A, 0.35 mg of PMSF). The parasite pellets were lysed by three freeze/thaw cycles (liquid nitrogen and 37° C. water bath) and protein content was determined using Bio-Rad DC Protein Assay. […] . The reaction was initiated by the addition of 1 mM GSH and the formation of S-(2,4-dinitrophenyl)glutathione was monitored spectrophotometrically at 340 nm (ε340 nm=0.0096 μM^−1cm^−1) using the SpectraMax M3 Microplate Reader (Molecular Devices).

[4] = target: T1, human placenta GST (Homo sapiens, UniProt P09211); test: GST inhibition, human placenta GST; type: biochemical; settings: human placenta GST, 0, 1, 10, and 50 μM
T1 construct: from tissue; host or cells: human placenta
T1 sequence (P09211 2-210 limits assumed): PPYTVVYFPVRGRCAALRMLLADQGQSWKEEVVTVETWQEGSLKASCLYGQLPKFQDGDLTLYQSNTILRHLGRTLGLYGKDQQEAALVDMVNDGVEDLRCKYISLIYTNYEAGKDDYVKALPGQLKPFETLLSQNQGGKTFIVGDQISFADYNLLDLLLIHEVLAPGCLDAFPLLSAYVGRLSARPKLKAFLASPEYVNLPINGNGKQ

SMILES | hemolysis (lytic activity) [1] | EC50 [2] [nM] | inhibition of PbGST activity [3] | inhibition of human GST activity [4]
O=C(N/N=C/c1cc(Br)ccc1O)/C(=C/C=C/c1ccccc1)NC(=O)c1ccccc1 [CB-50] | did not hemolyze erythrocytes |  |  | 
O=C(NN=Cc1c(O)ccc2ccccc12)c1nc(-c2ccccc2)cc(-c2ccccc2)n1 [CB-27] | did not hemolyze erythrocytes | 958 | concentration-dependent inhibition | does not inhibit
COc1cccc(/C=N/NC(=O)c2nc(-c3ccccc3)cc(-c3ccccc3)n2)c1O [CB-41] | did not hemolyze erythrocytes |  |  | 
COc1cccc(C=NNC(=O)c2cc(-c3ccccc3)nc3ccccc23)c1O [CB-58] | did not hemolyze erythrocytes |  |  | 
O=C(Nc1cc(Cl)ccc1O)c1cc2nc(-c3ccccc3)cc(-c3ccccc3)n2n1 [CB-59] | did not hemolyze erythrocytes |  |  | 
O=C(N/N=C/c1ccccc1O)c1cc(-c2ccccc2)nc2ccccc12 [CB-53] | did not hemolyze erythrocytes |  |  | 
O=C(N/N=C/c1c(O)ccc2ccccc12)c1cc([N+](=O)[O-])cc([N+](=O)[O-])c1 [CB-61] | did not hemolyze erythrocytes |  |  | 
